Laboratory results as given in patent publication US11899025B2, “Pharmaceutical composition for preventing or treating neurodegenerative diseases comprising COX2 acetylating agent as active ingredient” (KYUNGPOOK NATIONAL UNIVERSITY INDUSTRY-ACADEMIC COOPERATION …, priority 2018, dated 2024).

Test system: APP/PS1 mice
Experiment: Alzheimer's animal model (APP/PS1 mice): immunofluorescence, Thioflavin S, Morris Water Maze
Type: in vivo, mouse
Conditions: 7-month-old APP/PS1 mice, 5 mg/kg N-acetyl sphingosine, 1 mg/kg FTY720 or 3 uM S1P daily for 4 weeks, intraperitoneal
Source text: It has been approved for mouse experiments by the Kyungpook National University Institutional Animal Care and Use Committee (IACUC). A transgenic mouse line overexpressing APPswe (hAPP695swe) or PS1 (presenilin-1M146V) based on C57BL/6 mice (Charles River, UK) was used. [Hereinafter, APP mouse: mouse overexpressing APPswe, PS1 mouse: mouse overexpressing presenilin-1M146V; GlaxoSmithKline]. As an Alzheimer's (AD) animal model, SphK1 tg (SphK1 gene overexpressing mouse) was crossed with APP mice and APP/PS1 mice to prepare APP/PS1/SphK1 tg mice. Niemanpick (NP-C) animal model, Balb/C (Orient, Wild type), NPC mutant mouse lacking NPC1 gene (Provided by Riken, Japan, NP-C mice; less weight than normal mice of the same age, and severe motor function loss from 4 to 6 weeks of age, limb tremors and seizures appear, and lifespan is approximately 9 to 10 weeks. Is) was used. As an animal model for amyotrophic lateral sclerosis (ALS), a transgenic mouse (FUS) line overexpressing RUS R521C based on C57BL/6 mice (Charles River, UK) was used.
After fixing the cerebral and hippocampus of the mouse, anti-20G10 (mouse, 1:1000) against amyloid-β (Aβ) 42 and anti-G30 (rabbit, 1:1000) against Aβ 40, anti-MAP2 (chicken, 1:2000), anti-Synaptophysin (mouse, 1:100), anti-Synapsin1 (rabbit, 1:500), anti-PSD95 (mouse, 1:100), anti-Iba-1 (rabbit, 1:500), Anti-GFAP (rabbit, 1:500) was cultured together. The site was analyzed using a laser scanning confocal microscope or Olympus BX51 microscope equipped with Fluoview SV1000 imaging software (Olympus FV1000, Japan). Metamorph software (Molecular Devices) was used to quantify the percentage of the area of the stained area relative to the area of the total tissue.
In order to confirm the potential effect on learning and memory, MWM (Morris water maze) and fear conditioning experiments were performed. MWM learned the task 4 times a day for 10 days for the mice, the platform was removed on the 11th day, and a probe trial was performed. On the first day of Fear conditioning, the mice were placed in a conditioning chamber, and sound stimulation (10 kHz, 70 dB) and electrical stimulation (0.3 mA, 1 s) were given. On the second day, memory for the space was checked without stimulation in the same conditioning chamber as on the first day, and on the third day, a memory test for fear was performed when only sound stimulation was given in another conditioning chamber. An open field test was performed to evaluate motor ability and immediate activity. In the open field test, the mice were placed in a square box for 10 minutes to measure the overall exercise power, time, and distance.
In order to measure the neuroinflammatory resolution factor, after culturing neurons from mouse cerebrum, CM was prepared by treatment with 10 nM N-acetyl sphingosine 1 phosphate (Toronto Research chemicals, C262710) and N-acetyl sphingosine (Sigma, 01912). For COX2 acetylation analysis, neurons were cultured from mouse cerebrum and then treated with 2 uCi [^14C]N-acetyl sphingosine (ARC, ARC1024). In addition, for in vivo experiments, 7-month-old APP/PS1 mice were injected with 5 mg/kg N-acetyl sphingosine (Sigma, 01912), 1 mg/kg FTY720 and 3 uM S1P daily for 4 weeks via intraperitoneal injection. 1 month-old NPC mice were injected with 5 mg/kg N-acetyl sphingosine (Sigma, 01912) and 2-month-old FUS mice with 30 mg/kg N-acetyl sphingosine (Sigma, 01912) daily for 4 weeks via subcutaneous injection.
The present inventors confirmed AD lesions by injecting N-acetyl sphingosine, one of the COX2 acetylating agents identified through the above experiment, into an APP/PS1 animal model. First, in order to determine the effect of N-acetyl sphingosine on the neuroinflammatory response by secreting neuroinflammatory resolution factor, changes in microglia and astrocytes were observed. […]

With `CCCCCCCCCCCCC/C=C/[C@@H](O)[C@H](CO)NC(C)=O` [N-acetyl sphingosine] the “microglia (Iba1) in brain cortex vs APP/PS1 mice” value (FIG. 9a) was “remarkable decrease”, the “astrocytes (GFAP) in brain cortex vs APP/PS1 mice” value (FIG. 9b) was “remarkable decrease” and the “amount of Aβ / Aβ deposition (Thioflavin S) vs APP/PS1 mice” value (FIG. 9c) was “significantly lower”. The “memory and cognition (Morris Water Maze) vs APP/PS1 mice” value (FIG. 9d) was “improved”.
